Assay results published in patent US12215140B2, “Method of stabilizing protein contained in specimen and solution for stabilizing protein contained in specimen” (EIKEN KAGAKU KABUSHIKI KAISHA, priority 2018, dated 2025).

System: hemoglobin-haptoglobin complex
Assay: Stability of hemoglobin (as hemoglobin-haptoglobin complex) in samples preserved at 37° C. in preservation solution containing 1 unit/L haptoglobin, Hb measured by latex agglutination method (Examples 1 to 7)
Set-up: species or system human
Details: arylboronic acid 15 mmol/L
How it was run: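 Latex agglutination (anti-human hemoglobin rabbit polyclonal latex) measured Hb in samples stored at 37 °C up to 21 days; values expressed as % recovery versus day 0. Preservation solution: HEPES 40 mmol/L pH 6.8, BSA 0.1%, NaN3 0.1%, haptoglobin 1 unit/L, phenylboronic acid 0–100 mmol/L, optional sugars; ~300 µg/L Hb, 0.5% feces or none.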

[1] = Feces 1, sugar (if added) 100 mmol/L, 0 days at 37° C.
[2] = Feces 1, sugar (if added) 100 mmol/L, 7 days at 37° C.
[3] = Feces 1, sugar (if added) 100 mmol/L, 14 days at 37° C.
[4] = Feces 2, sugar (if added) 100 mmol/L, 0 days at 37° C.
[5] = Feces 2, sugar (if added) 100 mmol/L, 7 days at 37° C.
[6] = Feces 2, sugar (if added) 100 mmol/L, 14 days at 37° C.
[7] = Feces 3, sugar (if added) 100 mmol/L, 0 days at 37° C.
[8] = Feces 3, sugar (if added) 100 mmol/L, 7 days at 37° C.
[9] = Feces 3, sugar (if added) 100 mmol/L, 14 days at 37° C.
[10] = No feces, sugar (if added) 100 mmol/L, 0 days at 37° C.
[11] = No feces, sugar (if added) 100 mmol/L, 7 days at 37° C.
[12] = No feces, sugar (if added) 100 mmol/L, 14 days at 37° C.

O=C(O)c1cccc(B(O)O)c1 [3C-PBA, 3-carboxyphenylboronic acid]
Hb concentration [1]: 309 µg/L
Recovery ratio with respect to Hb after 0 days [1]: 100%
Hb concentration [2]: 249 µg/L
Recovery ratio with respect to Hb after 0 days [2]: 81%
Hb concentration [3]: 239 µg/L
Recovery ratio with respect to Hb after 0 days [3]: 77%
Hb concentration (Feces 1, 37° C., 0 days): 309 µg/L
Recovery ratio with respect to Hb after 0 days (Feces 1, 37° C., 0 days): 100%
Hb concentration (Feces 1, 37° C., 7 days): 249 µg/L
Recovery ratio with respect to Hb after 0 days (Feces 1, 37° C., 7 days): 81%
Hb concentration (Feces 1, 37° C., 14 days): 239 µg/L
Recovery ratio with respect to Hb after 0 days (Feces 1, 37° C., 14 days): 77%
Hb concentration [4]: 309 µg/L
Recovery ratio with respect to Hb after 0 days [4]: 100%
Hb concentration [5]: 264 µg/L
Recovery ratio with respect to Hb after 0 days [5]: 85%
Hb concentration [6]: 240 µg/L
Recovery ratio with respect to Hb after 0 days [6]: 78%
Hb concentration (Feces 2, 37° C., 0 days): 309 µg/L
Recovery ratio with respect to Hb after 0 days (Feces 2, 37° C., 0 days): 100%
Hb concentration (Feces 2, 37° C., 7 days): 264 µg/L
Recovery ratio with respect to Hb after 0 days (Feces 2, 37° C., 7 days): 85%
Hb concentration (Feces 2, 37° C., 14 days): 240 µg/L
Recovery ratio with respect to Hb after 0 days (Feces 2, 37° C., 14 days): 78%
Hb concentration [7]: 300 µg/L
Recovery ratio with respect to Hb after 0 days [7]: 100%
Hb concentration [8]: 213 µg/L
Recovery ratio with respect to Hb after 0 days [8]: 71%
Hb concentration [9]: 200 µg/L
Recovery ratio with respect to Hb after 0 days [9]: 67%
Hb concentration (Feces 3, 37° C., 0 days): 300 µg/L
Recovery ratio with respect to Hb after 0 days (Feces 3, 37° C., 0 days): 100%
Hb concentration (Feces 3, 37° C., 7 days): 213 µg/L
Recovery ratio with respect to Hb after 0 days (Feces 3, 37° C., 7 days): 71%
Hb concentration (Feces 3, 37° C., 14 days): 200 µg/L
Recovery ratio with respect to Hb after 0 days (Feces 3, 37° C., 14 days): 67%
Hb concentration [10]: 293 µg/L
Recovery ratio with respect to Hb after 0 days [10]: 100%
Hb concentration [11]: 281 µg/L
Recovery ratio with respect to Hb after 0 days [11]: 96%
Hb concentration [12]: 276 µg/L
Recovery ratio with respect to Hb after 0 days [12]: 94%
Hb concentration (No feces, 37° C., 0 days): 293 µg/L
Recovery ratio with respect to Hb after 0 days (No feces, 37° C., 0 days): 100%
Hb concentration (No feces, 37° C., 7 days): 281 µg/L
Recovery ratio with respect to Hb after 0 days (No feces, 37° C., 7 days): 96%
Hb concentration (No feces, 37° C., 14 days): 276 µg/L
Recovery ratio with respect to Hb after 0 days (No feces, 37° C., 14 days): 94%

OB(O)c1cccc(O)c1 [3H-PBA, 3-hydroxyphenylboronic acid]
Hb concentration [1]: 327 µg/L
Recovery ratio with respect to Hb after 0 days [1]: 100%
Hb concentration [2]: 269 µg/L
Recovery ratio with respect to Hb after 0 days [2]: 82%
Hb concentration [3]: 268 µg/L
Recovery ratio with respect to Hb after 0 days [3]: 82%
Hb concentration (Feces 1, 37° C., 0 days): 327 µg/L
Recovery ratio with respect to Hb after 0 days (Feces 1, 37° C., 0 days): 100%
Hb concentration (Feces 1, 37° C., 7 days): 269 µg/L
Recovery ratio with respect to Hb after 0 days (Feces 1, 37° C., 7 days): 82%
Hb concentration (Feces 1, 37° C., 14 days): 268 µg/L
Recovery ratio with respect to Hb after 0 days (Feces 1, 37° C., 14 days): 82%
Hb concentration [4]: 326 µg/L
Recovery ratio with respect to Hb after 0 days [4]: 100%
Hb concentration [5]: 277 µg/L
Recovery ratio with respect to Hb after 0 days [5]: 85%
Hb concentration [6]: 264 µg/L
Recovery ratio with respect to Hb after 0 days [6]: 81%
Hb concentration (Feces 2, 37° C., 0 days): 326 µg/L
Recovery ratio with respect to Hb after 0 days (Feces 2, 37° C., 0 days): 100%
Hb concentration (Feces 2, 37° C., 7 days): 227 µg/L
Recovery ratio with respect to Hb after 0 days (Feces 2, 37° C., 7 days): 85%
Hb concentration (Feces 2, 37° C., 14 days): 264 µg/L
Recovery ratio with respect to Hb after 0 days (Feces 2, 37° C., 14 days): 81%
Hb concentration [7]: 313 µg/L
Recovery ratio with respect to Hb after 0 days [7]: 100%
Hb concentration [8]: 213 µg/L
Recovery ratio with respect to Hb after 0 days [8]: 68%
Hb concentration [9]: 206 µg/L
Recovery ratio with respect to Hb after 0 days [9]: 66%
Hb concentration (Feces 3, 37° C., 0 days): 313 µg/L
Recovery ratio with respect to Hb after 0 days (Feces 3, 37° C., 0 days): 100%
Hb concentration (Feces 3, 37° C., 7 days): 213 µg/L
Recovery ratio with respect to Hb after 0 days (Feces 3, 37° C., 7 days): 68%
Hb concentration (Feces 3, 37° C., 14 days): 206 µg/L
Recovery ratio with respect to Hb after 0 days (Feces 3, 37° C., 14 days): 66%
Hb concentration [10]: 303 µg/L
Recovery ratio with respect to Hb after 0 days [10]: 100%
Hb concentration [11]: 294 µg/L
Recovery ratio with respect to Hb after 0 days [11]: 97%
Hb concentration [12]: 296 µg/L
Recovery ratio with respect to Hb after 0 days [12]: 98%
Hb concentration (No feces, 37° C., 0 days): 303 µg/L
Recovery ratio with respect to Hb after 0 days (No feces, 37° C., 0 days): 100%
Hb concentration (No feces, 37° C., 7 days): 294 µg/L
Recovery ratio with respect to Hb after 0 days (No feces, 37° C., 7 days): 97%
Hb concentration (No feces, 37° C., 14 days): 296 µg/L
Recovery ratio with respect to Hb after 0 days (No feces, 37° C., 14 days): 98%
